ChEMBL document CHEMBL1201862, “PubChem BioAssay data set” (2004)
Calls of active or inactive are those of the source.

Key:
[1] = biological target: DNA dC->dU-editing enzyme APOBEC-3A (Homo sapiens, UniProt P31941); experiment: APOBEC3A DNA deaminase inhibitors, dose response, biochemical (AID 504722); type: functional
[2] = biological target: DNA dC->dU-editing enzyme APOBEC-3G (Homo sapiens, UniProt Q9HC16); experiment: Dose Response confirmation of small molecule APOBEC3G DNA Deaminase Inhibitors via a fluorescence-based single-stranded DNA deaminase assay. [Related pubchem assays (depositor defined):AID493012, AID493028]; type: functional
DNA dC->dU-editing enzyme APOBEC-3G, sequence (Q9HC16 whole entry): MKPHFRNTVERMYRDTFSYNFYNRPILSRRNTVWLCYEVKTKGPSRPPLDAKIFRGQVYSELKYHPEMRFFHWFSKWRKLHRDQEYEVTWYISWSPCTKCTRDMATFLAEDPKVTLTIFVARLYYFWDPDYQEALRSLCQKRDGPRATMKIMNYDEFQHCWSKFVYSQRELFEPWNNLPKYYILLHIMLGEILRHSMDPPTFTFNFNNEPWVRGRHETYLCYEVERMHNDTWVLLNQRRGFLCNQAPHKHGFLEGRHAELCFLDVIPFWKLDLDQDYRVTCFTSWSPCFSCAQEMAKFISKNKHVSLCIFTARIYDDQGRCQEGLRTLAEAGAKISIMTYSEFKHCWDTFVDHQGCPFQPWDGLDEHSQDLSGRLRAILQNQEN

Cytochrome P450 3A4 = Cytochrome P450 3A4 (Homo sapiens, UniProt P08684);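 note: CYP3A4 tested as one member of a cytochrome P450 panel screen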
Cytochrome P450 3A4, sequence (P08684 whole entry): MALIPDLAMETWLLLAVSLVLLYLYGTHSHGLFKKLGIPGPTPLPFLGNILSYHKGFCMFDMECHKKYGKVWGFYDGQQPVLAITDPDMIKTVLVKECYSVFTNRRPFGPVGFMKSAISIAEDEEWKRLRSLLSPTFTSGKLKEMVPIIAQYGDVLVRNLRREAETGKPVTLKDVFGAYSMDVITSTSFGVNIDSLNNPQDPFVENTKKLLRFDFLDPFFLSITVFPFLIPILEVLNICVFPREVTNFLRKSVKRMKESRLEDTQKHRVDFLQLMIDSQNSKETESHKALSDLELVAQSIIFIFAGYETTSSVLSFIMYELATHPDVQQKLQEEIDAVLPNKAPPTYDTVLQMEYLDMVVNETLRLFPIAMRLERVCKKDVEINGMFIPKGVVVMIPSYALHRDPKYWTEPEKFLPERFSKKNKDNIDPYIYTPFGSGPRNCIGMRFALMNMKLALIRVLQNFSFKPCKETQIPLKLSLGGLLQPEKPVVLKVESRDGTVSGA

Cytochrome P450 2C19 = Cytochrome P450 2C19 (Homo sapiens, UniProt P33261); experiment: Cytochrome panel assay with activity outcomes. Panel member name: p450-cyp2c19 Compounds with AC50 equal or less than 10 uM are considered active; type: functional; details: read-out: AC50
Cytochrome P450 2C19, sequence (P33261 whole entry): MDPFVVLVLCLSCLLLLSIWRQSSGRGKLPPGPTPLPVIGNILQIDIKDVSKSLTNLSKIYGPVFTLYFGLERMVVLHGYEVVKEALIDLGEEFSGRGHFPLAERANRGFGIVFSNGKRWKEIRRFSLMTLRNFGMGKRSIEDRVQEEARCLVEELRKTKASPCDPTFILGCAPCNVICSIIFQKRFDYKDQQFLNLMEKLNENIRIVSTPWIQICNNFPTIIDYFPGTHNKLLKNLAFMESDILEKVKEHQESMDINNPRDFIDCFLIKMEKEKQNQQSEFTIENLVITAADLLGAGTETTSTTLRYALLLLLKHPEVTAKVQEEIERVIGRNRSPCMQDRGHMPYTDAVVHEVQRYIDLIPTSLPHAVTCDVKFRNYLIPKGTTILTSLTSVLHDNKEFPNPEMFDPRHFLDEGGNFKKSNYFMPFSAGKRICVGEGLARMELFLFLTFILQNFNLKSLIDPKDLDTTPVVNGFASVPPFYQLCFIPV

[3] = biological target: T1, Short transient receptor potential channel 4 (Mus musculus, UniProt Q9QUQ5); experiment: mouse TRPC4 channel inhibitors, dose response, cell-based, HEK293 TRPC4/mu-opioid, Fluo-4 calcium (AID 434942); type: functional;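 note: potency of inhibitors blocking the TRPC4 calcium response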
T1 sequence (Q9QUQ5 whole entry): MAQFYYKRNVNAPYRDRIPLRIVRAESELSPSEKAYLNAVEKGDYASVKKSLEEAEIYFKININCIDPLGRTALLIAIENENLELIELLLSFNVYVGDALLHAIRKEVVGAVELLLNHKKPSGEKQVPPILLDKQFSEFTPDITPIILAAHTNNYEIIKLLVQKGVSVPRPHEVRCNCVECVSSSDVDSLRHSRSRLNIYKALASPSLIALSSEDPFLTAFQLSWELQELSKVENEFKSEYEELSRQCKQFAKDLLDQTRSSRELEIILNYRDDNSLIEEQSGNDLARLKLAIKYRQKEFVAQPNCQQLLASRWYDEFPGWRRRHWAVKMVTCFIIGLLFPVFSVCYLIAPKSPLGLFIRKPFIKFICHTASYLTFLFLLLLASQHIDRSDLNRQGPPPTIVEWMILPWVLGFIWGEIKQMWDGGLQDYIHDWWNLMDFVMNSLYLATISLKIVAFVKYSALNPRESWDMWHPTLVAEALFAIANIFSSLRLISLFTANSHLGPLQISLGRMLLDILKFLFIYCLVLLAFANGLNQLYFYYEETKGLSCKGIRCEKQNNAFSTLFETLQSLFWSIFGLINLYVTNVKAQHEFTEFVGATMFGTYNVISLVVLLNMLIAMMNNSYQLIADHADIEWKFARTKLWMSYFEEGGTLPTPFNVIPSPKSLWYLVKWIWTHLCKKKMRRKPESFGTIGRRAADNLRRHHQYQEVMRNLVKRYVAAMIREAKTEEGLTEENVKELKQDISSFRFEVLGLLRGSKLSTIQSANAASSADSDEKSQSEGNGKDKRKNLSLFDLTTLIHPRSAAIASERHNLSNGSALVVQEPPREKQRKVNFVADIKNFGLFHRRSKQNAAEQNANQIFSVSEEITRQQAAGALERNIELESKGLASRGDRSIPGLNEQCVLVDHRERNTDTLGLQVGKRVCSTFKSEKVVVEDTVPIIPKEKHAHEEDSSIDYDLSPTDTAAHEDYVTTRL

Vero [4] = experiment: cells; type: functional, cell-based; details: Chlorocebus sabaeus
Vero [5] = experiment: cells; type: functional; details: Chlorocebus sabaeus
Cytochrome P450 1A2 = biological target: T2, Cytochrome P450 1A2 (Homo sapiens, UniProt P05177);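 note: PubChem cytochrome P450 panel assay, CYP1A2 panel member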
T2 sequence (P05177 whole entry): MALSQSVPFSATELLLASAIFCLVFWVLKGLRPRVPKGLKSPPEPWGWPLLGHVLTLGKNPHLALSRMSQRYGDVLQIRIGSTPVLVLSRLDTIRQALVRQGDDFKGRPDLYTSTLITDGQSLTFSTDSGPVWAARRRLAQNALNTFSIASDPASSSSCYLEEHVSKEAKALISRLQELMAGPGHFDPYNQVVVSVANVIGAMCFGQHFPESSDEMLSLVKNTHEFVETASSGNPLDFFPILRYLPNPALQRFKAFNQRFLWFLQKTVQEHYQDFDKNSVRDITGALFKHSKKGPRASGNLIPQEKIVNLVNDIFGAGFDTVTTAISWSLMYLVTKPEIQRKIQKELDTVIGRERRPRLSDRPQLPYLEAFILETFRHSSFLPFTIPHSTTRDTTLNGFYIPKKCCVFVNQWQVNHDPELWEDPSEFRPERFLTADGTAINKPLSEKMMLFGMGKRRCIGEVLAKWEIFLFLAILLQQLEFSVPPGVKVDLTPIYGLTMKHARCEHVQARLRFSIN

[6] = biological target: Nucleotide-binding oligomerization domain-containing protein 2 (Homo sapiens, UniProt Q9HC29); experiment: NOD2 signaling inhibitors, cell-based, luminescence, uHTS, HEK293 (AID 1566); type: functional
Nucleotide-binding oligomerization domain-containing protein 2, sequence (Q9HC29 whole entry, the tested form may be a part): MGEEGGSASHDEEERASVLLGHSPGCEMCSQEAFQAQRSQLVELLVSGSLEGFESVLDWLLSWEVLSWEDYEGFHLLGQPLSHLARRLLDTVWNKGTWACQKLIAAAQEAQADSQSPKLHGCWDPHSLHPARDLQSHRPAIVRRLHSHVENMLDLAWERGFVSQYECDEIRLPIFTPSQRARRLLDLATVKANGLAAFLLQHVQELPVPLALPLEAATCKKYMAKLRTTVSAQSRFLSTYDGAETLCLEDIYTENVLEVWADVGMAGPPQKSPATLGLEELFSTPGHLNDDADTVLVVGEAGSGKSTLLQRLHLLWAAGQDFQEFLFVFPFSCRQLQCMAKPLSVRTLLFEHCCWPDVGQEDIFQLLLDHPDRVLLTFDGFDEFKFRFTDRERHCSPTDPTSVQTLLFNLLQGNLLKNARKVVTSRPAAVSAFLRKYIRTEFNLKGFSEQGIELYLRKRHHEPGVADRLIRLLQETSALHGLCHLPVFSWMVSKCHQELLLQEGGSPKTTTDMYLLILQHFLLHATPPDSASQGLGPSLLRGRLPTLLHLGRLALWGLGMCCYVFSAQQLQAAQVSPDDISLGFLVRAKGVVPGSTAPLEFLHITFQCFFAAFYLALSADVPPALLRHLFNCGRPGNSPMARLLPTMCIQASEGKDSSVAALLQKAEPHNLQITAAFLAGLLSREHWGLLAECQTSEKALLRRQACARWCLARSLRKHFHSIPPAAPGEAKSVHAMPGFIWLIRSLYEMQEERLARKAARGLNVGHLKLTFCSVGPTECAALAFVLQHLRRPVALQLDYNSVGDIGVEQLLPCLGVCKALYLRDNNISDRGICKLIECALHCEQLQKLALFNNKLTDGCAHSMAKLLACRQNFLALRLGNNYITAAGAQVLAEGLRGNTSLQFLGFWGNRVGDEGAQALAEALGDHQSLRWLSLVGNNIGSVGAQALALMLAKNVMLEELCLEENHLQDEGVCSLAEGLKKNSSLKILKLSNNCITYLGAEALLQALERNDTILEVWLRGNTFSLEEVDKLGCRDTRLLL

HEK293 [7] = experiment: NOD2 signaling inhibitors in MDP-stimulated cells, cell-based, uHTS, luminescence (AID 2001); type: functional; details: Homo sapiens
HEK293 [8] = experiment: NOD1 signaling inhibitors, primary screen, cell-based, luminescence, uHTS (AID 1578); type: functional; details: Homo sapiens
HEK293 [9] = experiment: cells; type: functional, cell-based; details: Homo sapiens
HEK293 [10] = experiment: cells; type: functional, cell-based; details: Homo sapiens; remark: listed apart in the source
[11] = Vero E6 cell cytotoxicity, dose response, cytotoxicity control for non-replicating M. tuberculosis project, secondary assay (AID 492998); type: functional, VeroE6; details: Vero C1008
INS1 = experiment: beta cell apoptosis inhibitors, cytokine rescue, dose response, luminescence, retest (AID 449756); type: functional, cell-based; details: Rattus norvegicus;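 note: cell death triggered by IL-1 beta plus TNF-alpha plus IFN-gamma mixture; protective hits raise ATP signal compared with cytokine alone wells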
[12] = THP-1 cell cytotoxicity, dose response, cytotoxicity control for non-replicating M. tuberculosis project (AID 489025); type: functional
[13] = inhibitors of intracellular T. cruzi replication, confirmation, NIH3T3 host cells, beta-gal luminescence (AID 2044); type: functional, cell-based;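 note: intracellular parasites grown in NIH/3T3 mouse fibroblasts as host cells; luminescent beta-galactosidase reporter signal from transgenic T. cruzi replicating inside host cells; inhibitors lower the luminescence signal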
[14] = HepG2 cell cytotoxicity, dose response, cytotoxicity control for non-replicating M. tuberculosis project (AID 489018); type: functional; details: Mycobacterium tuberculosis
[15] = cytotoxicity toward NIH3T3 fibroblasts, dose response, counter-screen, cell-based, ATP luminescence, mouse fibroblasts (AID 2010); type: functional;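 note: cells exposed to compound for about 90 hours before reading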
cells = type: functional
Large T antigen = Large T antigen (Simian virus 40, UniProt P03070); type: functional, Betapolyomavirus macacae;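 note: Confirmatory-stage PubChem screen for compounds that inhibit SV40 T antigen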
Large T antigen, sequence (P03070 whole entry): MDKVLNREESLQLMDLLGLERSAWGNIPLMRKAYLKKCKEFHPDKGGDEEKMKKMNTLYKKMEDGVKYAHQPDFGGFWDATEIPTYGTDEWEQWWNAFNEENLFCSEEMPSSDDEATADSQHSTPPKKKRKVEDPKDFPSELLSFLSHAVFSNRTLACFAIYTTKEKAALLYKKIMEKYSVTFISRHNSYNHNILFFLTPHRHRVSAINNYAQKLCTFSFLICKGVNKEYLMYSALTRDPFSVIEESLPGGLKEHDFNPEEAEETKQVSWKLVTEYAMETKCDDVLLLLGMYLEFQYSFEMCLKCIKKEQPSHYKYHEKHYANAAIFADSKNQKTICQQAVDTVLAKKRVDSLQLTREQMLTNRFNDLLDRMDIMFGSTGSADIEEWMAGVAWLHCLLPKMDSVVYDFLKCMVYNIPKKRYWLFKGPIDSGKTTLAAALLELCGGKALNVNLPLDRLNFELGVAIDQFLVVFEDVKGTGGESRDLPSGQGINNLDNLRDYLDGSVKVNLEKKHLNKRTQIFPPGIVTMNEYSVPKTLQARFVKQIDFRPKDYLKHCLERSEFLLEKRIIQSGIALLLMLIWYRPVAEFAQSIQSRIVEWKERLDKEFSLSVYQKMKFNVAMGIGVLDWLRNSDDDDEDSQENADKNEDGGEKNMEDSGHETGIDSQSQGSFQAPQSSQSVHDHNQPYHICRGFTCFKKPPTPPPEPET

[16] = biological target: FAD-linked sulfhydryl oxidase ALR (Homo sapiens, UniProt P55789); experiment: inhibitors of human ALR sulfhydryl oxidase, dose response, biochemical, H2O2 detection, luminescence, cherry-pick (AID 493248)
FAD-linked sulfhydryl oxidase ALR, sequence (P55789 whole entry): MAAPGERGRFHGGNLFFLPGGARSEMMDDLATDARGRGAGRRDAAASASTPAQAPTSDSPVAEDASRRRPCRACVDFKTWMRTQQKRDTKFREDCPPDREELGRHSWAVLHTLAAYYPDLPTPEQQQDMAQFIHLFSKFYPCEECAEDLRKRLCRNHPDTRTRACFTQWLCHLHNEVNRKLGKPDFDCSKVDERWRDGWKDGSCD

P388 = experiment: cells; type: functional; details: Mus musculus
P388/ADR = experiment: cells; type: functional; details: Mus musculus
SN12K1 = experiment: cells; type: functional; details: Homo sapiens
Nonstructural protein 1 = Nonstructural protein 1 (Influenza A virus, UniProt Q194T2); type: functional, Influenza A virus (A/California/07/2009(H1N1))
Nonstructural protein 1, sequence (Q194T2 whole entry): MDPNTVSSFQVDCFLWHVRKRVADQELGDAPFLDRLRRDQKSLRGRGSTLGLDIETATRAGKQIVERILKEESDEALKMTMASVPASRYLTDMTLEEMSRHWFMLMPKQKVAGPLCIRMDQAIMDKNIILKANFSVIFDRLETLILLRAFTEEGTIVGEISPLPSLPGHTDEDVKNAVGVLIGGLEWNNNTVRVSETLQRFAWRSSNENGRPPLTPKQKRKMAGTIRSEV

Protein RecA = biological target: T3, Protein RecA (Mycobacterium tuberculosis, UniProt P9WHJ3); experiment: Fluorescence Cell-Free Homogeneous Dose Retest to Identify Inhibitors of RecA-Intein Splicing Activity. [Related pubchem assays (depositor defined):AID2097, AID2223, AID489010, AID492950]; type: functional
T3 sequence (P9WHJ3 whole entry): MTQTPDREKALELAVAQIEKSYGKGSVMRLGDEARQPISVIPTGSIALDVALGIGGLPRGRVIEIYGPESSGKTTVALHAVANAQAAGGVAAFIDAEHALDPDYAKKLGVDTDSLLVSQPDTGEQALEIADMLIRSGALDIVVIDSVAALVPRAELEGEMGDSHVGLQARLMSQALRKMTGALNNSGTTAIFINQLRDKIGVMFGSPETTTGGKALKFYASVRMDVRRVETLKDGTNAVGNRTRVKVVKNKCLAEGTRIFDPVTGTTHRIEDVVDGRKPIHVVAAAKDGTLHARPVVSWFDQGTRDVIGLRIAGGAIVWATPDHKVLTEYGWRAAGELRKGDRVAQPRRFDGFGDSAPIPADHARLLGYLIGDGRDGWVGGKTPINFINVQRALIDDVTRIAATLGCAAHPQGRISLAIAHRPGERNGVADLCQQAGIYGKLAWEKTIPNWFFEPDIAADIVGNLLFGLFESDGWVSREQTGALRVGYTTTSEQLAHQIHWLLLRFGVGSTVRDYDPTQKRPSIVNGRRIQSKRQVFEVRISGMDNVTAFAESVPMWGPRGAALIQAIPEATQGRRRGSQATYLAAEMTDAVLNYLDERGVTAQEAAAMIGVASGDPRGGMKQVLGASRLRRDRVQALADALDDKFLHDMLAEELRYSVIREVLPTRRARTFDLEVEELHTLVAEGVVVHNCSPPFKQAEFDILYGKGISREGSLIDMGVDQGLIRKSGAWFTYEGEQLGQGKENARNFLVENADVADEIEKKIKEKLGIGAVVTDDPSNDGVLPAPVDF

[17] = biological target: T4, Replicative DNA helicase DnaB (Mycobacterium tuberculosis, UniProt P9WMR3); experiment: DnaB intein splicing inhibitors, dose response, biochemical, cell-free fluorescence (AID 449749); type: functional
T4 sequence (P9WMR3 whole entry): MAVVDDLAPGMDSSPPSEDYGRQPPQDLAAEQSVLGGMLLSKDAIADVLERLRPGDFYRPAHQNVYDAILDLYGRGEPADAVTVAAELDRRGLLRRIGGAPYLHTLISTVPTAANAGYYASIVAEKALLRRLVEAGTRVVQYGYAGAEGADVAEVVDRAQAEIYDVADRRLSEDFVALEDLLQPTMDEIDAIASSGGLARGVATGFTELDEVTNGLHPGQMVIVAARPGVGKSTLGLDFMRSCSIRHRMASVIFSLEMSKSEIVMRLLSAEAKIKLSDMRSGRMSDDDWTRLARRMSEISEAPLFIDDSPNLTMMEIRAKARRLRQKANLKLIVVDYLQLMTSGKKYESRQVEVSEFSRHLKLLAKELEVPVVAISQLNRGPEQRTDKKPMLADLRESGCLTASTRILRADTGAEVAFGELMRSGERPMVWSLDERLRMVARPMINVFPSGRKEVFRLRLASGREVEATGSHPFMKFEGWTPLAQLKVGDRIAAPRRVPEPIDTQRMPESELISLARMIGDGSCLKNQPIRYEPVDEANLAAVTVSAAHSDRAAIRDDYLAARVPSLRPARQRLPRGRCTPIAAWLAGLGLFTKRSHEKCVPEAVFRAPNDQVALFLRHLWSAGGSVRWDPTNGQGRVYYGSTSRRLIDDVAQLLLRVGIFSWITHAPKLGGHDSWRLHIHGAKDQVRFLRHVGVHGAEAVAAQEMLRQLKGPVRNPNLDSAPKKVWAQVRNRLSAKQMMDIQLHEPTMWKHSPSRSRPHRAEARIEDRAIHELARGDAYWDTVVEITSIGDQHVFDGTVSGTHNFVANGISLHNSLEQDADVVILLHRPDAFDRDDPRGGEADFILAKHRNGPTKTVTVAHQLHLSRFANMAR

DNA dC->dU-editing enzyme APOBEC-3A, sequence (P31941 whole entry): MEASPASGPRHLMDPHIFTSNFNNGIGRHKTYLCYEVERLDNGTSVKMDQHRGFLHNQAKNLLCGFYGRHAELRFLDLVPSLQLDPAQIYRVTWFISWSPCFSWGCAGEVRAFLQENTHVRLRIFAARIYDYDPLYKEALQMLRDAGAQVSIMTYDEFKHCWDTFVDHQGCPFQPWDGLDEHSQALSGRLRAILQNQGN

C=C(C)Cn1c(-c2cccc([N+](=O)[O-])c2)n[nH]c1=S
IC50 [1]: > 100 µM (inactive)
IC50 [2]: 5.5 µM (active)

CCC(C)NC(=O)c1cnn2c(C)c3c(nc12)CCCC3 (stereo not drawn)
AC50 (Cytochrome P450 3A4): inconclusive
AC50 (Cytochrome P450 2C19): 31.6 µM (inconclusive)

Cc1nn(C)c(C)c1Sc1ccc(Br)cc1
EC50 [3]: 4.73 µM (active)

Cc1ccc(C(C[N+](=O)[O-])c2c(-c3ccccc3O)n[nH]c2O)cc1 (stereo not drawn)
IC50 (Vero [4]): > 25 µM (active)
CC50 (Vero [5]): 9.3 µM (active)

O=C(Nc1cccc(Cl)c1)N1CCN2C(=O)c3ccccc3C12c1ccccc1 (stereo not drawn)
AC50 (Cytochrome P450 1A2): 3.16 µM (inconclusive)
EC50 [3]: 3.76 µM (active)

CN1CCN(c2ncc3nc(-c4ccc(Cl)cc4)c(=O)n(Cc4cccs4)c3n2)CC1
AC50 (Cytochrome P450 3A4): inconclusive

COc1ccc([N+](=O)[O-])cc1NCc1ccco1
EC50 [3]: 2.99 µM (active)

CC(=O)c1ccc(-n2c(C)c(C(C)=O)c3cc(O)ccc32)cc1
EC50 [6]: > 20 µM (inactive)
IC50 (HEK293 [7]): 2.7 µM (active)
EC50 (HEK293 [8]): > 20 µM (inactive)
IC50 (HEK293 [9]): > 20 µM (inactive)
IC50 (HEK293 [10]): 1.94 µM (active)

c1ccn2cc(C34CC5CC(CC(C5)C3)C4)nc2c1
EC50 [3]: 6.68 µM (active)

Cc1ccc2nc(-c3ccccn3)c(NC3CCCC3)n2c1
CC50 [11]: 16.5 µM (active)
AC50 (INS1): 8.58 µM (active)
CC50 [12]: 14.3 µM (active)
EC50 [13]: 1.74 µM (active)
CC50 [14]: > 20 µM (active)
EC50 [15]: > 60 µM (not active)
IC50 (cells): 4.95 µM (active)
IC50 (Large T antigen): 11.6 µM (active)
AC50 [16]: 7.26 µM (active)

Cc1ccc(OCCCCCCN2CCNCC2)c(Br)c1
IC50 (Vero [4]): 19.7 µM (active)
CC50 (Vero [5]): 21.8 µM (active)

Cc1csc(/N=C(/NCCN2CCOCC2)Nc2nc(C)cs2)n1
GI50 (P388): > 31.6 µM (inactive)
GI50 (P388/ADR): > 80.4 µM (inactive)
GI50 (SN12K1): > 100 µM (inactive)

N=C(N)NCCCCCCC(=O)NC(O)C(=O)NCCCCNCCCN (stereo not drawn)
GI50 (P388): 30.1 µM (inactive)
GI50 (P388/ADR): 55.2 µM (inactive)
GI50 (SN12K1): 731 µM (inactive)

COC(=O)C(C/C=C(\C)c1ccc(Cl)cc1)C(C)=O (stereo not drawn)
GI50 (P388): 20 µM (inactive)
GI50 (P388/ADR): 23.6 µM (inactive)
GI50 (SN12K1): 21.8 µM (inactive)

C/C(=N\Nc1nc2ccccc2[nH]1)c1ccc(N2CCOCC2)cc1
CC50 [14]: > 20 µM (active)
IC50 (cells): 20.3 µM (active)

C/C(=N\NC(=O)c1c[nH]c2ccccc12)c1ccccn1
CC50 [11]: 2.01 µM (active)
CC50 [12]: 6.55 µM (active)
EC50 [13]: 1.73 µM (active)
CC50 [14]: 12.1 µM (active)
EC50 [15]: 3.97 µM (active)
IC50 (cells): 4.29 µM (active)
IC50 (Nonstructural protein 1): 3.17 µM (active)

c1ccc(CCCCN2CCC(c3ccccc3)CC2)cc1
AC50 (Cytochrome P450 3A4): inconclusive

O=C1c2ccccc2-n2c1nc1ccccc1c2=O [TRYPTANTHRIN]
EC50 (Protein RecA): 0.643 µM (active)
CC50 [11]: > 20 µM (active)
CC50 [12]: 17.5 µM (active)
AC50 [17]: 1.08 µM (active)
CC50 [14]: > 20 µM (active)
IC50 (cells): 0.33 µM (active)
